Measured values: ChEMBL document CHEMBL1130991, “Synthesis and antibacterial activity of [6,5,5] and [6,6,5] tricyclic fused oxazolidinones” (Bioorg Med Chem Lett, 1998)
Converted amounts (≈) assume the structure as drawn.

Key:
Bacteroides fragilis [1] = test: Antibacterial activity against Bacteroides fragilis UC12199; format: functional
Streptococcus pneumoniae = test: Antibacterial activity against Streptococcus pneumoniae UC9912; format: functional
Enterococcus faecalis = test: Antibacterial activity against Enterococcus faecalis UC9217; format: functional
[2] = test system: Staphylococcus epidermidis; test: Antibacterial activity against Staphylococcus epidermidis UC30031UC; format: functional
Staphylococcus aureus [3] = test: Antibacterial activity against Staphylococcus aureus UC9213; format: functional
Staphylococcus aureus [4] = test: Antibacterial activity against Staphylococcus aureus UC12673; format: functional
Mus musculus [5] = test: (§1) Effective dose required to inhibit Staphylococcus aureus UC9213 in mice subjected to a lethal systemic infection (when administered orally); format: functional; details: po
Staphylococcus aureus [6] = test: Effective dose required to inhibit Staphylococcus aureus UC9271 in mice subjected to a lethal systemic infection (when administered orally); format: functional; details: po
Bacteroides fragilis [7] = test: Compound was evaluated for antibacterial activity against Bacteroides fragilis UC12199 UC (Upjohn Culture); format: functional
Mus musculus [8] = test: as §1; format: functional, organism-based
Staphylococcus aureus [9] = test: as §1; format: functional; details: po
Mus musculus [10] = test: Compound was evaluated for antibacterial activity against Staphylococcus aureus UC9213 ((methicillin susceptible) in mice administered orally; format: functional; details: po

Row | Structure (SMILES) | MIC (Bacteroides fragilis [1]) [µg/mL] | MIC (Streptococcus pneumoniae) [µg/mL] | MIC (Enterococcus faecalis) [µg/mL] | MIC [2] [µg/mL] | MIC (Staphylococcus aureus [3]) [µg/mL] | MIC (Staphylococcus aureus [4]) [µg/mL] | MIC (Bacteroides fragilis [7]) [µg/mL] | ED50 (Mus musculus [5]) [mg/kg] | ED50 (Staphylococcus aureus [6]) [mg/kg] | EC50 (Mus musculus [8]) [mg/kg] | ED50 (Staphylococcus aureus [9]) [mg/kg] | ED50 (Mus musculus [10]) [mg/kg]
1 | CC(=O)NC[C@@H]1OC(=O)N2c3ccc(-c4cccnc4)cc3CC[C@H]12 | > 32 | > 64 | > 64 | > 64 | > 64 | > 64 |  |  |  |  |  | 
2 | CC(=O)NC[C@@H]1OC(=O)N2c3ccc(C(C)=O)cc3C[C@@H]12 |  |  | 16 (≈ 55.5 µM) | 8 (≈ 27.7 µM) | 8 (≈ 27.7 µM) |  |  | 39.5 |  |  |  | 
3 | CC(=O)NC[C@@H]1OC(=O)N2c3ccc(-c4cccnc4)cc3CC[C@@H]12 | > 32 | 16 (≈ 47.4 µM) | 32 (≈ 94.8 µM) | 16 (≈ 47.4 µM) | 32 (≈ 94.8 µM) | 16 (≈ 47.4 µM) |  |  |  |  |  | 
4 | CC(=O)NC[C@@H]1OC(=O)N2c3ccc(-c4cccnc4)cc3C[C@@H]12 | 2 (≈ 6.19 µM) |  | 2 (≈ 6.19 µM) | 2 (≈ 6.19 µM) | 4 (≈ 12.4 µM) | 2 (≈ 6.19 µM) |  | 9.4 | 4.4 |  |  | 
5 | CC(=O)NC[C@@H]1OC(=O)N2c3ccccc3CC[C@H]12 | > 32 | > 64 | > 64 | > 64 | > 64 | > 64 |  |  |  |  |  | 
6 | CC(=O)NC[C@@H]1OC(=O)N2c3ccc(-c4ccc(C#N)cc4)cc3C[C@@H]12 | 32 (≈ 92.1 µM) | 2 (≈ 5.76 µM) | 2 (≈ 5.76 µM) | 2 (≈ 5.76 µM) | 4 (≈ 11.5 µM) | 4 (≈ 11.5 µM) |  | 17.1 |  |  |  | 
7 | CC(=O)NC[C@@H]1OC(=O)N2c3ccc(-c4ccccc4)cc3C[C@@H]12 | 32 (≈ 99.3 µM) |  | 4 (≈ 12.4 µM) | 2 (≈ 6.2 µM) |  |  |  |  |  | > 25 |  | 
8 | CC(=O)NC[C@@H]1OC(=O)N2c3ccc(-c4ccncc4)cc3C[C@@H]12 | 8 (≈ 24.7 µM) |  | 2 (≈ 6.19 µM) |  |  |  |  |  | 16.5 |  | 6.1 | 
9 | CC(=O)NC[C@@H]1OC(=O)N2c3ccccc3CC[C@@H]12 | > 32 | > 64 | > 64 | > 64 | > 64 | > 64 |  |  |  |  |  | 
10 | CC(=O)NC[C@@H]1OC(=O)N2c3ccc(-c4cncnc4)cc3C[C@@H]12 | 8 (≈ 24.7 µM) |  | 4 (≈ 12.3 µM) | 4 (≈ 12.3 µM) | 8 (≈ 24.7 µM) | 4 (≈ 12.3 µM) |  | 11.4 |  |  |  | 
11 | CC(=O)NC[C@H]1CN(c2ccc(N3CCOCC3)cc2)C(=O)O1 | 4 (≈ 12.5 µM) | 1 (≈ 3.13 µM) | 4 (≈ 12.5 µM) | 2 (≈ 6.26 µM) | 4 (≈ 12.5 µM) | 4 (≈ 12.5 µM) |  |  |  |  |  | 
12 | CC(=O)NC[C@@H]1OC(=O)N2c3ccc(-c4cccnc4)cc3C[C@@H]12.Cl | 4 | 0.5 | 2 | 1 | 2 | 2 |  | 6 |  |  |  | 
13 | CC(=O)NC[C@H]1CN(c2ccc(C(C)=O)cc2)C(=O)O1 (racemic) [DUP-721] | 8 (≈ 29 µM) | 2 (≈ 7.24 µM) | 8 (≈ 29 µM) | 4 (≈ 14.5 µM) | 2 (≈ 7.24 µM) | 4 (≈ 14.5 µM) |  |  | 18.1 |  | 9.4 | 
14 | CC(=O)NC[C@H]1CN(c2ccc(N3CCOCC3)c(F)c2)C(=O)O1 [LINEZOLID] | 4 (≈ 11.9 µM) |  |  | 1 (≈ 2.96 µM) |  |  |  | 2 |  |  |  | 
15 | CN[C@H](CC(C)C)C(=O)N[C@H]1C(=O)N[C@@H](CC(N)=O)C(=O)N[C@H]2C(=O)N[C@H]3C(=O)N[C@H](C(=O)N[C@H](C(=O)O)c4cc(O)cc(O)c4-c4cc3ccc4O)[C@H](O)c3ccc(c(Cl)c3)Oc3cc2cc(c3O[C@@H]2O[C@H](CO)[C@@H](O)[C@H](O)[C@H]2O[C@H]2C[C@](C)(N)[C@H](O)[C@H](C)O2)Oc2ccc(cc2Cl)[C@H]1O [VANCOMYCIN] | > 16 | 0.5 (≈ 0.345 µM) | 4 (≈ 2.76 µM) | 0.5 (≈ 0.345 µM) |  |  |  | 1.1 |  |  |  | 

More lines, main results first:

Row | MIC (Bacteroides fragilis [1]) [µg/mL] | MIC (Streptococcus pneumoniae) [µg/mL] | MIC (Enterococcus faecalis) [µg/mL] | MIC [2] [µg/mL] | MIC (Staphylococcus aureus [3]) [µg/mL] | MIC (Staphylococcus aureus [4]) [µg/mL] | MIC (Bacteroides fragilis [7]) [µg/mL] | Structure (SMILES) | ED50 (Mus musculus [5]) [mg/kg] | ED50 (Staphylococcus aureus [6]) [mg/kg] | EC50 (Mus musculus [8]) [mg/kg] | ED50 (Staphylococcus aureus [9]) [mg/kg] | ED50 (Mus musculus [10]) [mg/kg]
16 | > 32 | 16 (≈ 49.3 µM) | 64 (≈ 197 µM) | 64 (≈ 197 µM) | 64 (≈ 197 µM) | 32 (≈ 98.7 µM) |  | CC(=O)NC[C@@H]1OC(=O)N2c3ccc(S(C)(=O)=O)cc3C[C@@H]12 |  |  |  |  | 
17 | > 32 | > 64 | > 64 | > 64 | > 64 | > 64 |  | CC(=O)NC[C@@H]1OC(=O)N2c3ccc(S(N)(=O)=O)cc3C[C@@H]12 |  |  |  |  | 
18 | > 16 | > 16 | > 16 | > 16 | > 16 | > 16 |  | CC(=O)NC[C@@H]1OC(=O)N2c3ccc(C(C)=O)cc3CC[C@@H]12 |  |  |  |  | 
19 | > 32 | > 64 | > 64 | > 64 | > 64 | > 64 |  | CC(=O)NC[C@@H]1OC(=O)N2c3ccc(S(=O)(=O)N4CCCCC4)cc3C[C@@H]12 |  |  |  |  | 
20 | > 32 | > 64 | > 64 | > 64 | > 64 | > 64 |  | CC(=O)NC[C@@H]1OC(=O)N2c3ccc(S(=O)(=O)NC4CCCC4)cc3C[C@@H]12 |  |  |  |  | 
21 | > 32 | > 64 | > 64 | > 64 | > 64 | > 64 |  | CC(=O)NC[C@@H]1OC(=O)N2c3ccc(S(=O)(=O)N4CCOCC4)cc3C[C@@H]12 |  |  |  |  | 
22 | > 16 | > 16 | > 16 | > 16 | > 16 | > 16 |  | CC(=O)NC[C@@H]1OC(=O)N2c3ccc(C(C)=O)cc3CC[C@H]12 |  |  |  |  | 
23 |  | > 32 | > 32 | > 32 | > 32 | > 32 | > 32 | CC(=O)NC[C@@H]1OC(=O)N2c3ccccc3C[C@H]12 |  |  |  |  | 
24 | > 16 | > 16 | > 16 | > 16 | > 16 | > 16 |  | CC(=O)NC[C@@H]1OC(=O)N2c3ccc(C(C)=O)cc3C[C@H]12 |  |  |  |  | 
25 | > 32 | > 64 | > 64 | > 64 | > 64 | > 64 |  | CC(=O)NC[C@@H]1OC(=O)N2c3ccc(S(=O)(=O)Nc4ccccc4)cc3C[C@@H]12 |  |  |  |  | 
26 | > 32 | > 64 | > 64 | > 64 | > 64 | > 64 |  | CC(=O)NC[C@@H]1OC(=O)N2c3ccc(S(=O)(=O)NCc4ccccc4)cc3C[C@@H]12 |  |  |  |  | 
27 | > 32 | > 32 | > 32 | > 32 | > 32 | > 32 |  | CC(=O)NC[C@@H]1OC(=O)N2c3ccccc3C[C@@H]12 |  |  |  |  | 
28 | > 16 | 32 (≈ 96.6 µM) | 128 (≈ 386 µM) | 32 (≈ 96.6 µM) | 64 (≈ 193 µM) | 64 (≈ 193 µM) |  | CC(=O)NC[C@@H]1OC(=O)N2c3ccc(N4CCOCC4)cc3C[C@@H]12 |  |  |  |  | > 20
29 | > 32 | > 64 | > 64 | > 64 | > 64 | > 64 |  | CCNS(=O)(=O)c1ccc2c(c1)C[C@H]1[C@H](CNC(C)=O)OC(=O)N21 |  |  |  |  | 
30 | > 32 | 64 (≈ 181 µM) | > 64 | 64 (≈ 181 µM) | 64 (≈ 181 µM) | 64 (≈ 181 µM) |  | CC(=O)NC[C@@H]1OC(=O)N2c3ccc(S(=O)(=O)N(C)C)cc3C[C@@H]12 |  |  |  |  | 
31 | > 32 | > 64 | > 64 | > 64 | > 64 | > 64 |  | CC(=O)NC[C@@H]1OC(=O)N2c3ccc(S(=O)(=O)N(C)CCCO)cc3C[C@@H]12 |  |  |  |  | 
32 | 4 (≈ 13.9 µM) | 4 (≈ 13.9 µM) | 4 (≈ 13.9 µM) | 2 (≈ 6.94 µM) | 4 (≈ 13.9 µM) | 4 (≈ 13.9 µM) |  | CC(=O)NCC1OC(=O)N2c3ccc(C(C)=O)cc3CC12 (single isomer, unassigned; (+)) |  |  |  |  | 
